From patent US10550135B2, “Silicon incorporated quinolines with anti-malarial and anti-toxoplasmosis activity” (Council of Scientific & Industrial Research, priority 2016, dated 2020) come the findings set out here.

In experiment [1] the test system is Plasmodium falciparum (3D7). Put plainly: Anti-malarial screening, P. falciparum 3D7 growth in human RBC culture, SybrGreen fluorescence. It is filed as cell-based. As to conditions: for inhibition at 10 µM: primary screen, 3D7, 60 hours; for EC50: dose response, 10 μM to 1 nM dilution series, 3D7. As for the experimental part: (§1) • a) Anti-malarial screening: Plasmodium falciparum (3D7; Malaria Research and Reference Reagent Resource Center ID NO: MRA-102) is cultured in the laboratory as per standard protocols [Moll et. al. 2008]. Briefly, P. falciparum is cultured using 2% hematocrit washed RBCs, separated from freshly collected human blood, in RPMI media containing glutamine, sodium bicarbonate and antibiotics. Parasites are routinely synchronized using 5% sorbitol treatment. Anti-malarial screens are carried out in two stages: 1) a primary screen at a fixed concentration of 10 μM to find out % inhibition of growth; and 2) a dose assay for finding out the IC50 of hits identified from the primary screen. In both assays the following steps are followed. 200 μL's of the diluted parasite culture (2% parasitemia and 2% hematocrit; at late ring stage), is added to each well in a 96 well plate pre-seeded with the compound of interest at the required concentration of 10 μM. The master stocks and dilutions of the compounds are prepared in cell culture grade DMSO. NOTE: DMSO only treatment control is done and the results are used for normalizing the data obtained from compound treatment. All compounds are plated in triplicates. Each 96 well plate also includes negative control (compound untreated culture) and positive control (standard anti-malarial treated culture). Standard anti-malarials used are chloroquine, artemisinine and atovaquone, each at 1 μM concentration. After plating, the culture is incubated in standard growth condition for 60 hours, after which the cultures are processed for testing the effect of compounds on parasite growth using SybrGreen staining and fluorescence measurements at 520 nm emission following excitation at 498 nm. Since only the parasites have DNA (as RBCs are devoid of nucleus), the SybrGreen signal is a direct indictor of parasite density in respective samples. Results are used to quantifying relative parasite growth (or conversely % inhibition of growth) in untreated, standard anti-malarial treated and test molecules treated P. falciparum cultures. Compounds showing greater than 80% reduction in parasitemia are selected from this primary screening for carrying out dose response analysis using the respective test molecules from 10 μM to 1 nM dilution series. Data from this experiment is used for the calculation of IC50 values for the respective test molecules. • b) Anti-toxoplasma screening: For screening bioactivity of test molecules against T. gondii, a transgenic line of the parasite expressing the luciferase gene is used. The parental parasite used to generate the TgLuc+ strain is a Type I (RH) virulent strain (ATCC reference 50174D), which can also be used for in vivo studies in mice, if needed. The tachyzoite stage of the parasites are routinely cultured in the laboratory using standard protocols [Roos et al., 1994. In brief, a confluent monolayer of Human Foreskin Fibroblast (HFF; ATCC reference SCRS-1041) cells in culture are used as the host cells for infection with tachyzoite stage T. gondii. The culture media used to grow parasites is standard complete DMEM (Gibco BRL, USA) containing glucose (5.5 mM), glutamine (2 mM), Hepes (25 mM) and 1% dialyzed bovine fetal calf serum (Gibco BRL, USA). For bioactivity assays, the HFF cells are grown in 96 well plates and each well is infected with 1×10^4 TgLuc+ parasitesin the presence of 10 μM of test molecules (in primary screens) in a total volume of 200 μL. After 2 days of incubation and growth in a 37° C. incubator maintaining 5% CO2, the 96 well plates are processed for luminescence measurements using the reagents in the luciferase assay kit (Promega, USA). […]

A further experiment deals with T. gondii. Put plainly: Anti-toxoplasma screening, luciferase-expressing T. gondii (TgLuc+) in HFF cells, luminescence. It counts as cell-based. The conditions noted are these: for inhibition at 10 µM: 48 h, primary screen, TgLuc+ tachyzoites in HFF cells, 2 days. As for the experimental part:
as §1

As a reminder, the inhibition is how much of the control response was suppressed. For orientation: EC50 means the concentration at which the effect is half-maximal. `C[Si]1(C)CCN(Cc2ccc(-c3cc(C(=O)NCCO)c4cc(F)ccc4n3)cc2)CC1` [NDS 101076, 2-(4-((4,4-dimethyl-1,4-azasilinan-1-yl)methyl)phenyl)-6-fluoro-N-(2-hydroxyethyl)quinoline-4-carboxamide]: in experiment [1], the inhibition at 10 µM came to 81.4% and the EC50 turned out to be 6120 nM.
Take `C[Si]1(C)CCN(Cc2ccc(-c3cc(C(=O)NCCN4CCSCC4)c4cc(F)ccc4n3)cc2)CC1` [NDS 101077, 2-(4-((4,4-dimethyl-1,4-azasilinan-1-yl)methyl)phenyl)-6-fluoro-N-(2-thiomorpholinoethyl)quinoline-4-carboxamide]: in experiment [1], the inhibition at 10 µM was 95.5% and the EC50 turned out to be 950 nM.
With `C[Si](C)(C)CCNC(=O)c1cc(-c2ccc(CN3CCOCC3)cc2)nc2ccc(F)cc12` [NDS 101037, 6-fluoro-2-(4-(morpholinomethyl)phenyl)-N-(2-(trimethylsilyl)ethyl)quinoline-4-carboxamide], the inhibition at 10 µM is 9.16% in experiment [1] and 45% in the experiment on T. gondii.
Regarding `C[Si]1(C)CCN(C(=O)c2cc(-c3ccc(CN4CCOCC4)cc3)nc3ccc(F)cc23)CC1` [NDS 101006, (4,4-dimethyl-1,4-azasilinan-1-yl)(6-fluoro-2-(4-(morpholinomethyl)phenyl)quinolin-4-yl)methanone], the results for the inhibition at 10 µM (in experiment [1]; with T. gondii) were 1.87% and 0%, respectively.
`CN1CCN(CCNC(=O)c2cc(-c3ccc(CN4CC[Si](C)(C)CC4)cc3)nc3ccc(F)cc23)CC1` [NDS 101075, 2-(4-((4,4-dimethyl-1,4-azasilinan-1-yl)methyl)phenyl)-6-fluoro-N-(2-(4-methylpiperazin-1-yl)ethyl)quinoline-4-carboxamide]: in experiment [1], the inhibition at 10 µM is 95.2% and the EC50 stood at 403 nM.
Turning to `C[Si]1(C)CCN(Cc2ccc(-c3cc(C(=O)NCCN4CCOCC4)c4cc(F)ccc4n3)cc2)CC1` [NDS 101008, 2-(4-((4,4-dimethyl-1,4-azasilinan-1-yl)methyl)phenyl)-6-fluoro-N-(2-morpholinoethyl)quinoline-4-carboxamide], in experiment [1], the inhibition at 10 µM amounted to 95.9% and the half-maximal effective concentration (EC50) worked out at 1260 nM. Moreover, the inhibition at 10 µM in the experiment on T. gondii came to 3%.
Consider `C[Si]1(C)CCN(Cc2ccc(-c3cc(C(=O)NCCN4CCCC4)c4cc(F)ccc4n3)cc2)CC1` [NDS 100950, 2-(4-((4,4-dimethyl-1,4-azasilinan-1-yl)methyl)phenyl)-6-fluoro-N-(2-(pyrrolidin-1-yl)ethyl)quinoline-4-carboxamide], for which the inhibition at 10 µM is 95.7% in experiment [1] and 95.2% in the experiment on T. gondii. Moreover, the concentration for a half-maximal effect (EC50) in experiment [1] was 60 nM; with T. gondii (HFF, dose response, 10 μM to 1 nM dilution series) it was 3940 nM.
For the molecule `C[Si]1(C)CCN(Cc2ccc(-c3cc(C(=O)N4CCOCC4)c4cc(F)ccc4n3)cc2)CC1` [NDS 101007, (2-(4-((4,4-dimethyl-1,4-azasilinan-1-yl)methyl)phenyl)-6-fluoroquinolin-4-yl)(morpholino)methanone], the figures for the inhibition at 10 µM (in experiment [1]; in the experiment on T. gondii) were 2.79% and 3%, respectively.
Take `C[Si]1(C)CCN(Cc2ccc(-c3cc(C(=O)Nc4ccccn4)c4cc(F)ccc4n3)cc2)CC1` [NDS 101009, 2-(4-((4,4-dimethyl-1,4-azasilinan-1-yl)methyl)phenyl)-6-fluoro-N-(pyridin-2-yl)quinoline-4-carboxamide]: the inhibition at 10 µM in experiment [1] is 97.1%; in the experiment with T. gondii, 31%. In addition, the EC50 in experiment [1] worked out at 810 nM.
With `C[Si]1(C)CCN(Cc2ccc(-c3cc(C(=O)NCCN4CCCCC4)c4cc(F)ccc4n3)cc2)CC1` [NDS 101074, 2-(4-((4,4-dimethyl-1,4-azasilinan-1-yl)methyl)phenyl)-6-fluoro-N-(2-(piperidin-1-yl)ethyl)quinoline-4-carboxamide], in experiment [1], the inhibition at 10 µM is 78.8% and the concentration giving a half-maximal response (EC50) was 112 nM.
In the case of `C[Si]1(C)CCN(CCNC(=O)c2cc(-c3ccc(CN4CCOCC4)cc3)nc3ccc(F)cc23)CC1` [NDS 100951, N-(2-(4,4-dimethyl-1,4-azasilinan-1-yl)ethyl)-6-fluoro-2-(4-(morpholinomethyl)phenyl)quinoline-4-carboxamide], the results for the inhibition at 10 µM (in experiment [1]; in the experiment with T. gondii) were 93.6% and 21.8%, respectively. The 50% effective concentration (EC50) in experiment [1] was 50 nM.
